Experimental data published in patent US20220354754A1, “FOAM COMPOSITIONS” (The Procter & Gamble Company, priority 2021, published 2022).

Test: Water solubility of blowing agents at 20° C.
Conditions: in water

## CCCC [Butane]
  Water solubility at 20° C. (weight percent): <0.01% weight percent

## O=C=O [Carbon dioxide]
  Water solubility at 20° C. (weight percent): 0.8% weight percent

## COC [Dimethyl ether]
  Water solubility at 20° C. (weight percent): 7% weight percent

## [He] [Helium]
  Water solubility at 20° C. (weight percent): <0.01 weight percent

## CC(C)C [Isobutane]
  Water solubility at 20° C. (weight percent): <0.01% weight percent

## [N-]=[N+]=O [Nitrous oxide]
  Water solubility at 20° C. (weight percent): 0.12 weight percent
